From patent US20230092890A1, “1, 3, 4-Oxadiazole derivative compounds as histone deacetylase 6 inhibitor, and the pharmaceutical composition comprising the same” (Chong Kun Dang Pharmaceutical Corp., priority 2019, published 2023)

Legend:
[1] = biological target: T1, HDAC1 (Homo sapiens, UniProt Q13547); assay: HDAC enzyme activity inhibition (in vitro), HDAC1 Fluorimetric Drug Discovery Assay Kit; type: biochemical; conditions: samples at 100, 1000 and 10000 nM; 37° C. 60 minutes; fluorescence Ex 390, Em 460; read-out: HDAC1 IC50
T1 construct: purchased Enzolifesciences BML-AK511
Method in brief: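 HDAC1 was tested at 100, 1000 and 10000 nM and recombinant human HDAC6 at 0.1, 1, 10, 100 and 1000 nM. Enzyme reactions ran 60 min at 37° C, then developer was added for 30 min at 37° C, and fluorescence (Ex 390, Em 460) was read.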

[2] = biological target: T2, HDAC6 human recombinant (Homo sapiens, UniProt Q9UBN7); assay: HDAC enzyme activity inhibition (in vitro), HDAC6 assay; type: biochemical; conditions: samples at 0.1, 1, 10, 100 and 1000 nM; 37° C. 60 minutes; fluorescence Ex 390, Em 460; read-out: HDAC6 IC50
T2 construct: purchased Calbiochem 382180
T2 sequence (Q9UBN7 1-1215): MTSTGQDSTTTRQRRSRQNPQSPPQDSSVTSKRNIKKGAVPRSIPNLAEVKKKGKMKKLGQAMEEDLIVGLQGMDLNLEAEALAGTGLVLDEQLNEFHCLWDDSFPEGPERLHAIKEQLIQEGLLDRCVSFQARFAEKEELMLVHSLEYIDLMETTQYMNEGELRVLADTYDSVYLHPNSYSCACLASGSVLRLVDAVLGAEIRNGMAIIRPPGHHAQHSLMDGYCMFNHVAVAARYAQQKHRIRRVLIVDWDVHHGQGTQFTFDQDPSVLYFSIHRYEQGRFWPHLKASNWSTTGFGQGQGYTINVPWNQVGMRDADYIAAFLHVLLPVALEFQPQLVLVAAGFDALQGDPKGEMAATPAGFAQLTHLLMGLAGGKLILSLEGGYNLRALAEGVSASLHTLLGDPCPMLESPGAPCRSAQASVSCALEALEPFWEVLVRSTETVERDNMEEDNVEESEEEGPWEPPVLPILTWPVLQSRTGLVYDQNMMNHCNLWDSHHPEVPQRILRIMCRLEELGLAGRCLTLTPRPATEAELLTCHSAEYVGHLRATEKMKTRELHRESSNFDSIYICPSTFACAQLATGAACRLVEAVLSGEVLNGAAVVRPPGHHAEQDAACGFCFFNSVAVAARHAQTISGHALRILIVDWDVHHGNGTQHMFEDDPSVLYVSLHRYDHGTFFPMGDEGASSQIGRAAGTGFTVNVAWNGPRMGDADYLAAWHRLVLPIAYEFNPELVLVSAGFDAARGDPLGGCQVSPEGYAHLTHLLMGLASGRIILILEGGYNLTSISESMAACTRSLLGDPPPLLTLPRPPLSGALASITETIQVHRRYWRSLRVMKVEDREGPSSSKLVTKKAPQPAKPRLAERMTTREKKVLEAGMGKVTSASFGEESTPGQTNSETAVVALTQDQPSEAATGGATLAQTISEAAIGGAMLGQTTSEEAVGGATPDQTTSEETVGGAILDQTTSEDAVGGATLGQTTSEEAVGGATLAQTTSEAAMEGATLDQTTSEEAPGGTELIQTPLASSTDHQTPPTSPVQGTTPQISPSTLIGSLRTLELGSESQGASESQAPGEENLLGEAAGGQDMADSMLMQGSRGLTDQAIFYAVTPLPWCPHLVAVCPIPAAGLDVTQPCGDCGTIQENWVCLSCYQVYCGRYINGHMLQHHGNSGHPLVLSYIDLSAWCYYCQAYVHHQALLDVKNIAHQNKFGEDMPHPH
Method in brief: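 HDAC6 human recombinant enzyme with fluorimetric substrate; […]. Reaction 60 min at 37° C, then developer 30 min at 37° C; fluorescence read at Ex 390/Em 460.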

T1 sequence (Q13547 whole entry): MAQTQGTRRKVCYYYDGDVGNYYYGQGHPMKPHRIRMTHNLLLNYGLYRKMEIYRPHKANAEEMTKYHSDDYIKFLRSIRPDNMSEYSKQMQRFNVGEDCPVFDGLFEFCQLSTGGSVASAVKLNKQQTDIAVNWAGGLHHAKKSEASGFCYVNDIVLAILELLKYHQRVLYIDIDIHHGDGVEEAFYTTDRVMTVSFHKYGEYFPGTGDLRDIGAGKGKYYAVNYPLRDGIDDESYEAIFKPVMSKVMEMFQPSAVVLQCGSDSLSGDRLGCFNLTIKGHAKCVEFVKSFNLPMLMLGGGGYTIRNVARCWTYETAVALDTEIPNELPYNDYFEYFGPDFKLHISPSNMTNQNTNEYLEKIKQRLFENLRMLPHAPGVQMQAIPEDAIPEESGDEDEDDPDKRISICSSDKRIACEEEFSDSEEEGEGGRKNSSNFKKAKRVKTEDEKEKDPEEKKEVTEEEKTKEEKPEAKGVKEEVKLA

SMILES | IC50 [1] [nM] | IC50 [2] [nM]
O=c1sc2cc(-c3ccc(CN4CCOCC4)nc3)ccc2n1Cc1ccc(-c2nnc(C(F)F)o2)cn1 [Compound 333, 3-((5-(5-(difluoromethyl)-1,3,4-oxadiazole-2-yl)pyridine-2-yl)methyl)-6-(6-(morpholinomethyl)pyridine-3-yl)benzo[d]thiazole-2(3H)-one] | > 10000 | 38
O=c1oc2cc(-c3cnc(N4CCN(C5COC5)CC4)nc3)c(F)cc2n1Cc1ccc(-c2nnc(C(F)F)o2)cn1 [Compound 339, 3-((5-(5-(difluoromethyl)-1,3,4-oxadiazole-2-yl)pyridine-2-yl)methyl)-5-fluoro-6-(2-(4-(oxetan-3-yl)piperazine-1-yl)pyrimidine-5-yl)benzo[d]oxazole-2(3H)-one] | > 10000 | 52
CC(C)(C)OC(=O)n1ccc2cc(-c3ccc4c(c3)sc(=O)n4Cc3ccc(-c4nnc(C(F)F)o4)cn3)ccc21 [Compound 237, tert-butyl 5-(3-((5-(5-(difluoromethyl)-1,3,4-oxadiazole-2-yl)pyridine-2-yl)methyl)-2-oxo-2,3-dihydrobenzo[d]thiazole-6-yl)-1H-indole-1-carboxylate] | > 10000 | 1140
CN1CCC(n2c(=O)n(Cc3ccc(-c4nnc(C(F)F)o4)cn3)c3cc(F)c(-c4ccco4)cc32)CC1 [Compound 151, 1-((5-(5-(difluoromethyl)-1,3,4-oxadiazole-2-yl)pyridine-2-yl)methyl)-6-fluoro-5-(furan-2-yl)-3-(1-methylpiperidine-4-yl)-1,3-dihydro-2H-benzo[d]imidazole-2-one] | > 10000 | 55
Cc1ccc(-c2cc3c(cc2F)n(Cc2ccc(-c4nnc(C(F)F)o4)cc2F)c(=O)n3C)o1 [Compound 170, 1-(4-(5-(difluoromethyl)-1,3,4-oxadiazole-2-yl)-2-fluorobenzyl)-6-fluoro-3-methyl-5-(5-methylfuran-2-yl)-1,3-dihydro-2H-benzo[d]imidazole-2-one] | > 10000 | 211
CN1CCC(n2c(=O)n(Cc3ccc(-c4nnc(C(F)F)o4)cc3F)c3ccccc32)C1 (centres unmarked) [Compound 20, 1-(4-(5-(difluoromethyl)-1,3,4-oxadiazole-2-yl)-2-fluorobenzyl)-3-(1-methylpyrrolidine-3-yl)-1,3-dihydro-2H-benzo[d]imidazole-2-one] | > 10000 | 285
O=C(c1cncnc1)N1CCC(n2c(=O)n(Cc3ccc(-c4nnc(C(F)F)o4)cn3)c3cc(F)ccc32)CC1 [Compound 64, 3-((5-(5-(difluoromethyl)-1,3,4-oxadiazole-2-yl)pyridine-2-yl)methyl)-5-fluoro-1-(1-(pyrimidine-5-carbonyl)piperidine-4-yl)-1,3-dihydro-2H-benzo[d]imidazole-2-one] | > 10000 | 44
CN1CCC(n2c(=O)n(Cc3ccc(-c4nnc(C(F)F)o4)cc3F)c3cc(F)c(-c4ccoc4)cc32)CC1 [Compound 115, 1-(4-(5-(difluoromethyl)-1,3,4-oxadiazole-2-yl)-2-fluorobenzyl)-6-fluoro-5-(furan-3-yl)-3-(1-methylpiperidine-4-yl)-1,3-dihydro-2H-benzo[d]imidazole-2-one] | > 10000 | 77
O=c1n(Cc2ccc(-c3nnc(C(F)F)o3)cc2F)c2ccccc2n1C1CN(C2COC2)C1 [Compound 23, 1-(4-(5-(difluoromethyl)-1,3,4-oxadiazole-2-yl)-2-fluorobenzyl)-3-(1-(oxetan-3-yl)azetidine-3-yl)-1,3-dihydro-2H-benzo[d]imidazole-2-one] | > 10000 | 241
Cn1c(=O)n(Cc2ccc(-c3nnc(C(F)F)o3)cn2)c2cc(F)c(-c3ccc(CN4CCOCC4)nc3)cc21 [Compound 330, 1-((5-(5-(difluoromethyl)-1,3,4-oxadiazole-2-yl)pyridine-2-yl)methyl)-6-fluoro-3-methy 1-5-(6-(morpholinomethyl)pyridine-3-yl)-1,3-dihydro-2H-benzo[d]imidazole-2-one] | > 10000 | 22
